Data as given in ChEMBL document CHEMBL6177946, “Design, synthesis and biological evaluation of Streptazolin analogs as anti-inflammatory agents” (Bioorg Med Chem Lett, 2025).
Activity calls are given as the source filed them. The calls are words filed in the database; no cut-off is given here.

Experiments:
Escherichia coli = test: Antibacterial activity against Escherichia coli assessed as inhibition of bacterial growth at 100 uM; type: functional, organism-based
Bacillus subtilis = test: Antibacterial activity against Bacillus subtilis assessed as inhibition of bacterial growth at 100 uM; type: functional, organism-based
RAW264.7 [1] = test: Pro-inflamamtory activity in LPS-induced mouse RAW264.7 cells assessed as increase in NO production at 100 uM; type: functional, cell-based
Pseudomonas aeruginosa = test: Antibacterial activity against Pseudomonas aeruginosa assessed as inhibition of bacterial growth at 100 uM; type: functional, organism-based
RAW264.7 [2] = test: Anti-inflammatory activity against LPS-induced mouse RAW264.7 cells assessed as inhibition of NO production at 100 uM; type: functional, cell-based
Staphylococcus aureus = test: Antibacterial activity against Staphylococcus aureus assessed as inhibition of bacterial growth at 100 uM; type: functional, organism-based
RAW264.7 [3] = test: Anti-inflammatory activity against LPS-induced mouse RAW264.7 cells assessed as inhibition of NO production; type: functional, cell-based
[4] = Stability of the compound in dichloromethane measured after 2 months; type: physicochemical; conditions: 1460 h
RAW264.7 [5] = test: Anti-inflammatory activity against LPS-induced mouse RAW264.7 cells assessed as inhibition of TNF-alpha production at 100 uM by ELISA; type: functional
RAW264.7 [6] = test: Cytotoxicity against mouse RAW264.7 cells assessed as effect on cell viability at 100 uM; type: toxicity, cell-based; conditions: raw264.7, 100 µM
RAW264.7 [7] = test: Anti-inflammatory activity against LPS-induced mouse RAW264.7 cells assessed as inhibition of IL-1 beta production at 100 uM by ELISA; type: functional

**Q.** With `C/C=C1/C2=CCCN3C(=O)O[C@H]([C@H]1OC(=O)CCCCCCCCC)[C@H]23` as the molecule, how does the Activity (Escherichia coli) read?
**A.** inactive

**Q.** What about the Activity (Bacillus subtilis) of the same molecule?
**A.** inactive

**Q.** And the Activity (RAW264.7 [1])?
**A.** Active

**Q.** What about the Activity (Pseudomonas aeruginosa) of the same molecule?
**A.** inactive

**Q.** And the Activity (RAW264.7 [2])?
**A.** inactive

**Q.** And the Activity (Staphylococcus aureus)?
**A.** inactive

**Q.** Which Activity (Escherichia coli) does the source give for `C/C=C1/C2=CCCN3C(=O)O[C@H]([C@H]1OC(=O)c1ccccc1)[C@H]23` here?
**A.** inactive

**Q.** What about the Activity (Bacillus subtilis) of the same molecule?
**A.** inactive

**Q.** What about the Activity (Pseudomonas aeruginosa) of the same molecule?
**A.** inactive

**Q.** What about the Activity (RAW264.7 [2]) of the same molecule?
**A.** Active

**Q.** What about the Activity (Staphylococcus aureus) of the same molecule?
**A.** inactive

**Q.** Which Activity (Escherichia coli) does the source give for `C/C=C1/C2=CCCN3C(=O)O[C@H]([C@H]1OC(=O)C(C)C)[C@H]23` here?
**A.** inactive

**Q.** And the Activity (Bacillus subtilis)?
**A.** inactive

**Q.** And the Activity (Pseudomonas aeruginosa)?
**A.** inactive

**Q.** And the Activity (RAW264.7 [2])?
**A.** inactive

**Q.** What about the Activity (Staphylococcus aureus) of the same molecule?
**A.** inactive

**Q.** With `C/C=C1/C2=CCCN3C(=O)O[C@H]([C@H]1OC(=O)c1ccc(C)cc1)[C@H]23` as the molecule, how does the Activity (Escherichia coli) read?
**A.** inactive

**Q.** What about the Activity (Bacillus subtilis) of the same molecule?
**A.** inactive

**Q.** And the Activity (Pseudomonas aeruginosa)?
**A.** inactive

**Q.** And the Activity (RAW264.7 [2])?
**A.** Active

**Q.** And the Activity (Staphylococcus aureus)?
**A.** inactive

**Q.** With `C/C=C1/C2=CCCN3C(=O)O[C@H]([C@H]1OC(=O)C1CCCCC1)[C@H]23` as the molecule, how does the Activity (Escherichia coli) read?
**A.** inactive

**Q.** And the Activity (Bacillus subtilis)?
**A.** inactive

**Q.** And the Activity (Pseudomonas aeruginosa)?
**A.** inactive

**Q.** What about the Activity (RAW264.7 [2]) of the same molecule?
**A.** Active

**Q.** And the Activity (Staphylococcus aureus)?
**A.** inactive

**Q.** Which results are given for `C/C=C1/C2=CCCN3C(=O)O[C@H]([C@@H]1Cl)[C@H]23`?
**A.** Activity (Escherichia coli): inactive; Activity (Bacillus subtilis): inactive; Activity (Pseudomonas aeruginosa): inactive; Activity (Staphylococcus aureus): inactive

**Q.** Which Activity (Escherichia coli) does the source give for `C/C=C1/C2=CCCN3C(=O)O[C@H]([C@H]1OC(=O)CC)[C@H]23` here?
**A.** inactive

**Q.** And the Activity (Bacillus subtilis)?
**A.** inactive

**Q.** And the Activity (Pseudomonas aeruginosa)?
**A.** inactive

**Q.** What about the Activity (RAW264.7 [2]) of the same molecule?
**A.** inactive

**Q.** What about the Activity (Staphylococcus aureus) of the same molecule?
**A.** inactive

**Q.** With `C/C=C1/C2=CCCN3C(=O)O[C@H]([C@H]1O)[C@H]23` as the molecule, how does the Activity (Escherichia coli) read?
**A.** inactive

**Q.** What about the Activity (Bacillus subtilis) of the same molecule?
**A.** inactive

**Q.** What about the Activity (RAW264.7 [1]) of the same molecule?
**A.** Active

**Q.** And the Activity (Pseudomonas aeruginosa)?
**A.** inactive

**Q.** What about the Activity (Staphylococcus aureus) of the same molecule?
**A.** inactive

**Q.** For `C/C=C1/C2=CCCN3C(=O)O[C@H]([C@H]1OS(=O)(=O)CCC)[C@H]23`, which Activity (Escherichia coli) is on record?
**A.** inactive

**Q.** What about the Activity (Bacillus subtilis) of the same molecule?
**A.** inactive

**Q.** And the Activity (Pseudomonas aeruginosa)?
**A.** inactive

**Q.** What about the Activity (RAW264.7 [2]) of the same molecule?
**A.** Active

**Q.** And the Activity (Staphylococcus aureus)?
**A.** inactive

**Q.** For `C/C=C1/C2=CCCN3C(=O)O[C@H]([C@H]1OC(=O)CCCC)[C@H]23`, which Activity (Escherichia coli) is on record?
**A.** inactive

**Q.** And the Activity (Bacillus subtilis)?
**A.** inactive

**Q.** What about the Activity (RAW264.7 [3]) of the same molecule?
**A.** Dose-dependent-effect

**Q.** And the IC50 (RAW264.7 [3])?
**A.** 8.8 µM

**Q.** And the Stability [4]?
**A.** Stable

**Q.** What about the inhibition at 100 µM (RAW264.7 [5]) of the same molecule?
**A.** ≤ 60%

**Q.** What about the Activity (Pseudomonas aeruginosa) of the same molecule?
**A.** inactive

**Q.** And the Activity (RAW264.7 [6])?
**A.** Non-toxic

**Q.** What about the inhibition at 100 µM (RAW264.7 [7]) of the same molecule?
**A.** > 90%

**Q.** And the Activity (RAW264.7 [2])?
**A.** Active

**Q.** What about the Activity (Staphylococcus aureus) of the same molecule?
**A.** inactive

**Q.** With `C/C=C1/C2=CCCN3C(=O)O[C@H]([C@H]1OC(=O)CCCCCCCCCCC)[C@H]23` as the molecule, how does the Activity (Escherichia coli) read?
**A.** inactive

**Q.** And the Activity (Bacillus subtilis)?
**A.** inactive

**Q.** What about the Activity (Pseudomonas aeruginosa) of the same molecule?
**A.** inactive

**Q.** And the Activity (RAW264.7 [2])?
**A.** inactive

**Q.** What about the Activity (Staphylococcus aureus) of the same molecule?
**A.** inactive

**Q.** What does the source list for `C/C=C1/C2=CCCN3C(=O)O[C@H]([C@H]1OC(=O)/C=C/c1ccccc1)[C@H]23`?
**A.** Activity (Escherichia coli): inactive; Activity (Bacillus subtilis): inactive; Activity (Pseudomonas aeruginosa): inactive; Activity (RAW264.7 [2]): Active; Activity (Staphylococcus aureus): inactive

**Q.** Which Activity (Escherichia coli) does the source give for `C/C=C1/C2=CCCN3C(=O)O[C@H]([C@H]1OS(C)(=O)=O)[C@H]23` here?
**A.** inactive

**Q.** What about the Activity (Bacillus subtilis) of the same molecule?
**A.** inactive

**Q.** And the Activity (Pseudomonas aeruginosa)?
**A.** inactive

**Q.** What about the Activity (RAW264.7 [2]) of the same molecule?
**A.** Active

**Q.** And the Activity (Staphylococcus aureus)?
**A.** inactive

**Q.** Which results are given for `C/C=C1/C2=CCCN3C(=O)O[C@H]([C@H]1OC(=O)CCC)[C@H]23`?
**A.** Activity (Escherichia coli): inactive; Activity (Bacillus subtilis): inactive; Activity (Pseudomonas aeruginosa): inactive; Activity (RAW264.7 [2]): inactive; Activity (Staphylococcus aureus): inactive

**Q.** With `C/C=C1/C2=CCCN3C(=O)O[C@H]([C@H]1OC(C)=O)[C@H]23` as the molecule, how does the Activity (Escherichia coli) read?
**A.** inactive

**Q.** What about the Activity (Bacillus subtilis) of the same molecule?
**A.** inactive

**Q.** And the Activity (Pseudomonas aeruginosa)?
**A.** inactive

**Q.** And the Activity (RAW264.7 [2])?
**A.** inactive

**Q.** And the Activity (Staphylococcus aureus)?
**A.** inactive

**Q.** For `C/C=C1/C2=CCCN3C(=O)O[C@H]([C@H]1OC(=O)C(C)(C)C)[C@H]23`, which Activity (Escherichia coli) is on record?
**A.** inactive

**Q.** What about the Activity (Bacillus subtilis) of the same molecule?
**A.** inactive

**Q.** And the Activity (Pseudomonas aeruginosa)?
**A.** inactive

**Q.** What about the Activity (RAW264.7 [2]) of the same molecule?
**A.** Active

**Q.** And the Activity (Staphylococcus aureus)?
**A.** inactive
